Measured values from patent US20240199558A1, “2,4,6-TRISUBSTITUTED 1,3,5-TRIAZINES AS MODULATORS OF CX3CR1” (ASTRAZENECA AB, priority 2022, published 2024).

What follows are compounds tested against CX3CR1 (Homo sapiens (Human), UniProt P49238) (assay: hCX3CR1 [3H]-AZD8797 competitive binding assay (filter)). Details: CHO-hCX3CR1 membranes, 2 nM [3H]-AZD8797.
CX3CR1, sequence (P49238 whole entry): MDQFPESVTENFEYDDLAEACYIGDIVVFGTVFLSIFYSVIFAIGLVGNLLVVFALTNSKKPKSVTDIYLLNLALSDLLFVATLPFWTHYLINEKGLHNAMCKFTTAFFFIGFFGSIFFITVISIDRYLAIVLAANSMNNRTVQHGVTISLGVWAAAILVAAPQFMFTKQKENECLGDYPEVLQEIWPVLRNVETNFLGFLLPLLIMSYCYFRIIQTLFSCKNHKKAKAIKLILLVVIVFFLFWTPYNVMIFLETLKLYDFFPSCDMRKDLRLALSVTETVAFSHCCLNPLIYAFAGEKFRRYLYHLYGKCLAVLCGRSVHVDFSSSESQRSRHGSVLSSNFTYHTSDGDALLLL
In short: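 CHO-hCX3CR1 membranes (9 μg/well) were incubated 2 h at room temperature with 2 nM [3H]-AZD8797 and varying competitor concentrations. Buffer: 25 mM HEPES pH 7.4, 10 mM MgCl2, 1 mM CaCl2, 0.5% BSA, 1% DMSO. Bound ligand was collected by vacuum filtration, washed in ice-cold buffer with 500 mM NaCl, and counted by scintillation.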
Work on CC(C)C[C@H](CO)Nc1nc(CC(C)c2cc(Cl)ccc2O)nc(NS(C)(=O)=O)n1 (stereo partly drawn) [Example 107, N-(4-(2-(5-Chloro-2-hydroxyphenyl)propyl)-6-(((R)-1-hydroxy-4-methylpentan-2-yl)amino)-1,3,5-triazin-2-yl)methanesulfonamide] yielded an IC50 of 113 nM. For CC(C)C[C@H](CO)Nc1nc(CC(C)c2ccc3c(c2)OCO3)nc(NS(C)(=O)=O)n1 (stereo partly drawn) [Example 108, N-(4-(2-(Benzo[d][1,3]dioxol-5-yl)propyl)-6-(((R)-1-hydroxy-4-methylpentan-2-yl)amino)-1,3,5-triazin-2-yl)methanesulfonamide], the IC50 was 58 nM. CC(C)C[C@H](CO)Nc1nc(CC(C)c2cccc3c(=O)n(C)cnc23)nc(NS(C)(=O)=O)n1 (stereo partly drawn) [Example 109, N-(4-(((R)-1-Hydroxy-4-methylpentan-2-yl)amino)-6-(2-(3-methyl-4-oxo-3,4-dihydroquinazolin-8-yl)propyl)-1,3,5-triazin-2-yl)methanesulfonamide] showed an IC50 of 84 nM. CC(C)C[C@H](CO)Nc1nc(CC(C)c2cc(F)c(CO)c(F)c2)nc(NS(C)(=O)=O)n1 (stereo partly drawn) [Example 110, N-(4-(2-(3,5-Difluoro-4-(hydroxymethyl)phenyl)propyl)-6-(((R)-1-hydroxy-4-methylpentan-2-yl)amino)-1,3,5-triazin-2-yl)methanesulfonamide] showed an IC50 of 34 nM. Cc1cc(C(C)Cc2nc(N[C@@H](CO)CC(C)C)nc(NS(C)(=O)=O)n2)ccc1F (stereo partly drawn) [Example 111, N-(4-(2-(4-Fluoro-3-methylphenyl)propyl)-6-(((R)-1-hydroxy-4-methylpentan-2-yl)amino)-1,3,5-triazin-2-yl)methanesulfonamide] was tested, and the IC50 was 391 nM. For CC(C)C[C@H](CO)Nc1nc(CC(C)c2ccc(N)cc2)nc(NS(C)(=O)=O)n1 (stereo partly drawn) [Example 112, N-(4-(2-(4-Aminophenyl)propyl)-6-(((R)-1-hydroxy-4-methylpentan-2-yl)amino)-1,3,5-triazin-2-yl)methanesulfonamide], the IC50 was 29 nM. COc1ccc(C(C)Cc2nc(N[C@@H](CO)CC(C)C)nc(NS(C)(=O)=O)n2)cc1 (stereo partly drawn) [Example 113, N-(4-(((R)-1-Hydroxy-4-methylpentan-2-yl)amino)-6-(2-(4-methoxyphenyl)propyl)-1,3,5-triazin-2-yl)methanesulfonamide] showed an IC50 of 184 nM. Cc1ccc(C(C)Cc2nc(N[C@@H](CO)CC(C)C)nc(NS(C)(=O)=O)n2)cc1N (stereo partly drawn) [Example 114, N-(4-(2-(3-Amino-4-methylphenyl)propyl)-6-(((R)-1-hydroxy-4-methylpentan-2-yl)amino)-1,3,5-triazin-2-yl)methanesulfonamide] was tested, and the IC50 was 45 nM. With CC(C)C[C@H](CO)Nc1nc(CC(C)c2ccc(OCCN3CCOCC3)cc2)nc(NS(C)(=O)=O)n1 (stereo partly drawn) [Example 115, N-(4-(((R)-1-Hydroxy-4-methylpentan-2-yl)amino)-6-(2-(4-(2-morpholinoethoxy)phenyl)propyl)-1,3,5-triazin-2-yl)methanesulfonamide] the IC50 was 160 nM. CC(C)C[C@H](CO)Nc1nc(CC(C)c2ccc(C(=O)N(C)C)c(F)c2)nc(NS(C)(=O)=O)n1 (stereo partly drawn) [Example 116, 2-Fluoro-4-(1-(4-(((R)-1-hydroxy-4-methylpentan-2-yl)amino)-6-(methylsulfonamido)-1,3,5-triazin-2-yl)propan-2-yl)-N,N-dimethylbenzamide] was tested, and the IC50 was 282 nM. With CC(C)C[C@H](CO)Nc1nc(CC(C)c2cnc3c(ccn3C)c2)nc(NS(C)(=O)=O)n1 (stereo partly drawn) [Example 117, N-(4-(((R)-1-Hydroxy-4-methylpentan-2-yl)amino)-6-(2-(1-methyl-1H-pyrrolo[2,3-b]pyridin-5-yl)propyl)-1,3,5-triazin-2-yl)methanesulfonamide] the IC50 was 78 nM. CC(C)C[C@H](CO)Nc1nc(CC(C)c2ccc(N3CCOCC3=O)cc2)nc(NS(C)(=O)=O)n1 (stereo partly drawn) [Example 118, N-(4-(((R)-1-Hydroxy-4-methylpentan-2-yl)amino)-6-(2-(4-(3-oxomorpholino)phenyl)propyl)-1,3,5-triazin-2-yl)methanesulfonamide] gave an IC50 of 150 nM. CCOc1ccc(C(C)Cc2nc(N[C@@H](CO)CC(C)C)nc(NS(C)(=O)=O)n2)cc1F (stereo partly drawn) [Example 119] gave an IC50 of 335 nM. Compound CNC(=O)c1ccc(C(C)Cc2nc(N[C@@H](CO)CC(C)C)nc(NS(C)(=O)=O)n2)cc1F (stereo partly drawn) [Example 120, 2-Fluoro-4-(1-(4-(((R)-1-hydroxy-4-methylpentan-2-yl)amino)-6-(methylsulfonamido)-1,3,5-triazin-2-yl)propan-2-yl)-N-methylbenzamide] has an IC50 of 230 nM. CC(C)C[C@H](CO)Nc1nc(CC(C)c2cccc(N)c2)nc(NS(C)(=O)=O)n1 (stereo partly drawn) [Example 121, N-(4-(2-(3-Aminophenyl)propyl)-6-(((R)-1-hydroxy-4-methylpentan-2-yl)amino)-1,3,5-triazin-2-yl)methanesulfonamide] showed an IC50 of 21 nM. Compound CC(C)C[C@H](CO)Nc1nc(CC(C)c2ccc(F)c(CO)c2)nc(NS(C)(=O)=O)n1 (stereo partly drawn) [Example 122, N-(4-(2-(4-Fluoro-3-(hydroxymethyl)phenyl)propyl)-6-(((R)-1-hydroxy-4-methylpentan-2-yl)amino)-1,3,5-triazin-2-yl)methanesulfonamide] has an IC50 of 120 nM. CCOc1ccc(C(C)Cc2nc(N[C@@H](CO)CC(C)C)nc(NS(C)(=O)=O)n2)cc1 (stereo partly drawn) [Example 123, N-(4-(2-(4-Ethoxyphenyl)propyl)-6-(((R)-1-hydroxy-4-methylpentan-2-yl)amino)-1,3,5-triazin-2-yl)methanesulfonamide] showed an IC50 of 339 nM. CC(C)C[C@H](CO)Nc1nc(CC(C)c2ccc3ncn(C)c(=O)c3c2)nc(NS(C)(=O)=O)n1 (stereo partly drawn) [Example 124, N-(4-(((R)-1-Hydroxy-4-methylpentan-2-yl)amino)-6-(2-(3-methyl-4-oxo-3,4-dihydroquinazolin-6-yl)propyl)-1,3,5-triazin-2-yl)methanesulfonamide] showed an IC50 of 126 nM. CC(C)C[C@H](CO)Nc1nc(CC(C)c2cnc3c(c2)OCC(=O)N3C)nc(NS(C)(=O)=O)n1 (stereo partly drawn) [Example 125, N-(4-(((R)-1-Hydroxy-4-methylpentan-2-yl)amino)-6-(2-(4-methyl-3-oxo-3,4-dihydro-2H-pyrido[3,2-b][1,4]oxazin-7-yl)propyl)-1,3,5-triazin-2-yl)methanesulfonamide] was tested, and the IC50 was 85 nM. CC(C)C[C@H](CO)Nc1nc(CC(C)c2ccc3c(=O)n(C)cnc3c2)nc(NS(C)(=O)=O)n1 (stereo partly drawn) [Example 126, N-(4-(((R)-1-Hydroxy-4-methylpentan-2-yl)amino)-6-(2-(3-methyl-4-oxo-3,4-dihydroquinazolin-7-yl)propyl)-1,3,5-triazin-2-yl)methanesulfonamide] gave an IC50 of 257 nM. Work on CC(C)C[C@H](CO)Nc1nc(CC(C)c2ccc(OC(F)F)nc2)nc(NS(C)(=O)=O)n1 (stereo partly drawn) [Example 127, N-(4-(2-(6-(Difluoromethoxy)pyridin-3-yl)propyl)-6-(((R)-1-hydroxy-4-methylpentan-2-yl)amino)-1,3,5-triazin-2-yl)methanesulfonamide] yielded an IC50 of 354 nM. In the case of CC(C)C[C@H](CO)Nc1nc(CC(C)c2ccc3c(c2)CC(=O)N(C)C3)nc(NS(C)(=O)=O)n1 (stereo partly drawn) [Example 128, N-(4-(((R)-1-Hydroxy-4-methylpentan-2-yl)amino)-6-(2-(2-methyl-3-oxo-1,2,3,4-tetrahydroisoquinolin-6-yl)propyl)-1,3,5-triazin-2-yl)methanesulfonamide], the IC50 is reported as 241 nM. CC(C)C[C@H](CO)Nc1nc(CC(C)c2ccc3c(c2)OCC(=O)N3C)nc(NS(C)(=O)=O)n1 (stereo partly drawn) [Example 129, N-(4-(((R)-1-Hydroxy-4-methylpentan-2-yl)amino)-6-(2-(4-methyl-3-oxo-3,4-dihydro-2H-benzo[b][1,4]oxazin-7-yl)propyl)-1,3,5-triazin-2-yl)methanesulfonamide] gave an IC50 of 169 nM. CC(C)C[C@H](CO)Nc1nc(CC(C)c2ccc3c(c2)CN(C)C(=O)C3)nc(NS(C)(=O)=O)n1 (stereo partly drawn) [Example 130, N-(4-(((R)-1-Hydroxy-4-methylpentan-2-yl)amino)-6-(2-(2-methyl-3-oxo-1,2,3,4-tetrahydroisoquinolin-7-yl)propyl)-1,3,5-triazin-2-yl)methanesulfonamide] was tested, and the IC50 was 79 nM. Cc1ncc(C(C)Cc2nc(N[C@@H](CO)CC(C)C)nc(NS(C)(=O)=O)n2)cc1N (stereo partly drawn) [Example 131, N-(4-(2-(5-Amino-6-methylpyridin-3-yl)propyl)-6-(((R)-1-hydroxy-4-methylpentan-2-yl)amino)-1,3,5-triazin-2-yl)methanesulfonamide] showed an IC50 of 639 nM. CC(C)C[C@H](CO)Nc1nc(CC(C)c2ccc(CCO)nc2)nc(NS(C)(=O)=O)n1 (stereo partly drawn) [Example 132, N-(4-(((R)-1-Hydroxy-4-methylpentan-2-yl)amino)-6-(2-(6-(2-hydroxyethyl)pyridin-3-yl)propyl)-1,3,5-triazin-2-yl)methanesulfonamide] showed an IC50 of 264 nM. Compound CC(C)C[C@H](CO)Nc1nc(CC(C)c2ccc(CO)c(F)c2)nc(NS(C)(=O)=O)n1 (stereo partly drawn) [Example 133, N-(4-(2-(3-Fluoro-4-(hydroxymethyl)phenyl)propyl)-6-(((R)-1-hydroxy-4-methylpentan-2-yl)amino)-1,3,5-triazin-2-yl)methanesulfonamide] has an IC50 of 26 nM. CC(C)C[C@H](CO)Nc1nc(CC(C)c2cnc3ccccc3c2)nc(NS(C)(=O)=O)n1 (stereo partly drawn) [Example 134, N-(4-(((R)-1-Hydroxy-4-methylpentan-2-yl)amino)-6-(2-(quinolin-3-yl)propyl)-1,3,5-triazin-2-yl)methanesulfonamide] gave an IC50 of 203 nM. In the case of CC(C)C[C@H](CO)Nc1nc(CC(C)c2cccc(F)c2O)nc(NS(C)(=O)=O)n1 (stereo partly drawn) [Example 135, N-(4-(2-(3-Fluoro-2-hydroxyphenyl)propyl)-6-(((R)-1-hydroxy-4-methylpentan-2-yl)amino)-1,3,5-triazin-2-yl)methanesulfonamide], the IC50 is reported as 104 nM. CC(C)C[C@H](CO)Nc1nc(CC(C)c2ccc(N)c(F)c2)nc(NS(C)(=O)=O)n1 (stereo partly drawn) [Example 136, N-(4-(2-(4-Amino-3-fluorophenyl)propyl)-6-(((R)-1-hydroxy-4-methylpentan-2-yl)amino)-1,3,5-triazin-2-yl)methanesulfonamide] showed an IC50 of 16 nM.
